# Test results: patent US10420844B2, “Peptide pharmaceuticals” (Mederis Diabetes LLC, priority 2011, dated 2019)
# “Also recorded” adds a separate entry of the source. Non-standard residues stand in square brackets, D forms with d. Residues, ends and D or L forms follow the SMILES beside them. *: point of attachment. GlcA(β-D,1-O-dodecyl) = CCCCCCCCCCCCO[C@@H]1O[C@H](C(=O)*)[C@@H](O)[C@H](O)[C@H]1O; hArg = N=C(N)NCCCC[C@H](N)C(=O)O; Nle = CCCC[C@H](N)C(=O)O; Ac5c = NC1(C(=O)O)CCCC1; Aib = CC(C)(N)C(=O)O
# Assays:
# mu opioid receptor = target: T1, mu opioid receptor (Homo sapiens, UniProt P35372); test: mu opioid receptor cellular assay (MOP, agonist and antagonist mode), cAMP readout, Cerep; format: cell-based
# T1 construct: Cerep SA (contract research organization)
# Description: (§1) Compounds were weighed precisely in an amount of approximately 2 mg and assayed in standard cellular assays by the contract research organization Cerep, Inc. (Pullman, Wash.) as executed at their subsidiary, Cerep SA (Le Bois l'Eveque, France). The readout is the amount of cAMP generated in the cells treated with the test compounds, in either agonist or antagonist mode. The assays used were the mu opioid receptor cellular assay (MOP in agonist and antagonist mode), the delta2 opioid receptor cellular assay (DOP in agonist and antagonist mode) and the kappa opioid receptor cellular assay (KOP in agonist and antagonist mode). The assays used are described in Wang, J. B., et al. (1994) FEBS Lett 338: 217-222, Law, P. Y. and Loh, H. H. (1993) Mol Pharmacol 43: 684-693, and Avidor-Reiss, T., et al. (1995) FEBS Lett 361: 70-74. The stimulant for the cells in the DOR antagonist assay was 3×10E-8M DPDPE, a well-accepted DOR literature standard.
# delta2 opioid receptor = target: T2, delta2 opioid receptor (Mus musculus, UniProt P32300); test: delta2 opioid receptor cellular assay (DOP, agonist and antagonist mode), cAMP readout, Cerep; format: cell-based; settings: in competition with 30 nM DPDPE
# T2 construct: Cerep SA (contract research organization)
# Description: as §1
# [1] = target: T3, PTH1 (PTHR1), SaOS2 cells (Homo sapiens, UniProt Q03431); test: PTH1 cellular assay, cAMP generated in SaOS2 cells, Cerep; format: cell-based
# T3 construct: host or cells: SaOS2 cells (as named in the result head)
# T3 sequence (Q03431 27-593): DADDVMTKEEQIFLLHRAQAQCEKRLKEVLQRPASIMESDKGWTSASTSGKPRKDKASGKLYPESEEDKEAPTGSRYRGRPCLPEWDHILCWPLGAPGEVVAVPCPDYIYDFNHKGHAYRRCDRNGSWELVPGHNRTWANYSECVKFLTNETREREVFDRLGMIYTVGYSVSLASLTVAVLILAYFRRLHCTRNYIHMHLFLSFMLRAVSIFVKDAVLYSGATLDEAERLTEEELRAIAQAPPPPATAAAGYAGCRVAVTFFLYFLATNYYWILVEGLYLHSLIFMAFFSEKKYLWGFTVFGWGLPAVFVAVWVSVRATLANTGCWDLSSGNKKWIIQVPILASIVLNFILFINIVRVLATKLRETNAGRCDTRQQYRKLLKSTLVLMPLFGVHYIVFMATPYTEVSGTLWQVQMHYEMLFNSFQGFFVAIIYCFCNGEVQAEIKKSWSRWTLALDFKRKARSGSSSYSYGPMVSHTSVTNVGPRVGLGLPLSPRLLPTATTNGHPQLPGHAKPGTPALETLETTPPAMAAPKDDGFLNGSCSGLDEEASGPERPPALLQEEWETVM
# Description: Compounds were weighed precisely in an amount of approximately 1 mg and assayed in standard cellular assays (cerep SA). The readout is the amount of cAMP generated in the cells treated with the test compounds, in either agonist or antagonist mode.
# Compounds were dissolved in water and diluted in assay buffer containing 1% bovine serum albumin.
# [2] = blood PO4 and Ca levels in rats after a single sc injection; format: in vivo, rat
# Excerpt: Following the method of Frolik, C.
# T1 sequence (P35372 whole entry): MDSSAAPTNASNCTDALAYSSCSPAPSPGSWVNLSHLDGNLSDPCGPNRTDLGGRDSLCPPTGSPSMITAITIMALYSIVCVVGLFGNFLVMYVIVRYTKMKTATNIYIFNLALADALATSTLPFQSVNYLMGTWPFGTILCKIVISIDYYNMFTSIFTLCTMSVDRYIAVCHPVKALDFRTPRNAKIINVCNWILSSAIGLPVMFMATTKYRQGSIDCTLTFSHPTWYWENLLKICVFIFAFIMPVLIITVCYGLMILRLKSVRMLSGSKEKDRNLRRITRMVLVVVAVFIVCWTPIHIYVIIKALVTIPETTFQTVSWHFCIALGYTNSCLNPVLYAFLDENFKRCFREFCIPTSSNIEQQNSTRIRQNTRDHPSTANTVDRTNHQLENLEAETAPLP
# T2 sequence (P32300 whole entry): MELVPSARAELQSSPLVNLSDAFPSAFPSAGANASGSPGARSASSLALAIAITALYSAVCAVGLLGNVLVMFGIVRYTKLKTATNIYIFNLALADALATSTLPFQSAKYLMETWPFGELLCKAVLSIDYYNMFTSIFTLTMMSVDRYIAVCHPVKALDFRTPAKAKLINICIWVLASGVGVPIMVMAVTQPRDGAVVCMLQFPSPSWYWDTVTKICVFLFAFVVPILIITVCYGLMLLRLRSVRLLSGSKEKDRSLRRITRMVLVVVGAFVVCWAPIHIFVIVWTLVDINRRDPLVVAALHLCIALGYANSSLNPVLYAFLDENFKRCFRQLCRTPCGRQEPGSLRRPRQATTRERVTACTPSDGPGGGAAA
Compound,behavior in the MOP agonist assay (FIG. 11) (mu opioid receptor),Characterization (mu opioid receptor; MOP agonist mode and DOP antagonist mode),action on the DOP receptor (FIG. 11) (delta2 opioid receptor),Characterization [1],character of the cellular cAMP response [1],"time of maximal statistically significant effect on blood phosphate ([2]; rat serum, sc dosing, last time point of the assay (FIG. 6)) [h]","blood calcium levels versus control (saline/vehicle) ([2]; rat, sc, 80 (PTH, EU-232) or 320 (EU-232), all time points)","blood calcium at maximally effective dose and time point ([2]; rat, sc, G4 320, at 5 hrs)","blood PO4 levels, 80 mcg groups ([2]; rat, single sc injection, 80 mcg, PO4 did not further diminish after 1 hour)","maximal decrease of blood PO4 from time 0 hr. level ([2]; rat, single sc injection, seen at the 5 hr. time point, statistically significant)"
"2′,6′-dimethyl-L-tyrosyl-L-1,2,3,4-tetrahydroisoquinoline-3-carbonyl-L-phenylalanyl-Nε-(1′-methyl R-D-glucuronyl)-L-lysyl-amide [EU-A178]","potent, full agonistic behavior",Pure MOP Ag; pure DOP antag,highly potent action as a pure antagonist,–,–,–,–,–,–,–
"CCCCCCCCCCCCO[C@@H]1O[C@H](C(=O)NCCCC[C@H](NC(=O)C(C)(C)NC(=O)[C@H](CCC(N)=O)NC(=O)[C@@H](NC(=O)[C@H](Cc2c[nH]c3ccccc23)NC(=O)[C@H](CCCNC(=N)N)NC(=O)[C@H](C)NC(=O)[C@H](CCCCNC(=N)N)NC(=O)[C@H](CCC(N)=O)NC(=O)[C@H](Cc2c[nH]cn2)NC(=O)[C@H](CCCC)NC(=O)[C@H](CC(C)C)NC(=O)[C@H](CCC(N)=O)NC(=O)[C@@H](NC(=O)[C@H](CCC(=O)O)NC(=O)C(C)(C)NC(=O)[C@@H](NC(=O)C2(N)CCCC2)C(C)C)[C@@H](C)CC)[C@@H](C)CC)C(=O)NC(C)(C)C(N)=O)[C@@H](O)[C@H](O)[C@H]1O [EU-232] (H-[Ac5c]V[Aib]EIQL[Nle]HQ[hArg]ARWIQ[Aib]K(GlcA(β-D,1-O-dodecyl))[Aib]-NH2)",–,–,–,agonist,super-agonistic response; also recorded: super-agonistic activity,5,No groups were statistically significantly different from control,no elevation,transient but not statistically significant decrease,25-35%
